Data published in patent publication US20120010177A1, “MicroRNA Modulators and Method for Identifying And Using The Same” (The Wistar Institute / North Carolina State University, priority 2008, published 2012).
Read-outs that look alike come from different tables or passages of the source.

Experiments:
[1] = test system: HEK293T (human embryonic kidney) cells; assay: Cell viability assay, HEK293T cells; type: cell-based; conditions: 10 μM Compound
Description: (§1) In these assays, A172 cells (glioblastoma cells) were contacted with a miR-21 inhibitor either alone or in combination with a conventional antiproliferative agent (i.e., 5-fluorouracil or curcumin). At the concentrations indicated, no toxic effects on HEK293T (human embryonic kidney) cells were observed.

mature miR-93 = assay: Quantitative RT-PCR of mature miR-93; type: cell-based, human; conditions: Table 2
Description: (§2) UNG (Applied Biosystems). […] (Sigma).

[2] = test system: A172 cells (glioblastoma cells); assay: Cell viability assay, A172 cells, alone or with antiproliferative agent; type: cell-based; conditions: Homo sapiens, A 172
Description: as §1

mature miR-21 = assay: Quantitative RT-PCR of mature miR-21; type: cell-based, human; conditions: for miR-21 RT PCR* (% Decrease as compared to DMSO control): Table 2; for mature miR-21 expression: HCT116 colon cancer cells and A172 glioblastoma cells, FIG. 6B
Description: as §2

mature miR-30 = assay: Quantitative RT-PCR of mature miR-30; type: cell-based, human; conditions: Table 2
Description: as §2

[3] = test system: primary miR-21 (pri-miR-21); assay: Quantitative RT-PCR of primary miR-21; type: cell-based, human; conditions: HCT116 colon cancer cells and A172 glioblastoma cells, FIG. 6A
Description: as §2

miR-21 [4] = assay: miR-21 luciferase reporter (Luc-miR-21) screening assay in HeLa cells; type: cell-based, human; conditions: HeLa Luc-miR-21 reporter, 10 μM, 48 hours, compared to untreated cells
Description: MicroRNA miR-21 was selected as a target miRNA due to its involvement as an anti-apoptotic factor in cancer cells and its elevated levels in various cancers such as breast, ovarian, and lung cancer as well as glioblastoma (Chan, et al. (2005) Cancer Res. 65:6029). Lentiviral reporter constructs for miRNA activity were assembled by introducing the complementary sequences of mature miR-21 (5′-UAGCUUAUCAGACUGAUGUUGA-3′; SEQ ID NO:13), miR-30A (5′-CUUUCAGUCGGAUGUUUGCAGC-3′; SEQ ID NO:14) as a specificity control, and a linker sequence (a previously present multiple-cloning site with no detectable recognition by natural miRNAs) downstream of a luciferase reporter gene as a negative control (FIG. 1).
Luc-miR-21, Luc-miR-30A, and Luc-linker (control) were, by viral infection, introduced into HeLa cells, which express high levels of miR-21, but only low levels of miR-30A (Cheng, et al. (2005) Nucl. Acids Res. 33:1290).
To illustrate the method of the present invention, a primary screen of >1000 compounds was conducted. The library was composed of a collection of novel compounds and the Library of Pharmacologically Active Compounds (LOPAC library, Sigma-Aldrich, St Louis, Mo.). All compounds were stored at a 10 mM concentration in DMSO to keep the DMSO concentration in the actual screen at 0.1% thereby minimizing toxicity. HeLa cells stably expressing the miR-reporter were treated with DMSO ranging from 0.1-1%. Luciferase signals were determined 48 hours after the treatment.
HeLa cells (2500 cells) were plated in each well of 384-well plate 24 hour before the addition of compounds. Compounds at 10 μM final concentration were added to each well. Luciferase signal were determined 48 hours after compound treatment. Using this screening assay, compound 1 was identified as a miR-21 antagonist.

miR-21 [5] = assay: High throughput primary miR-21 FLuc reporter assay (concentration-response); type: cell-based, human; conditions: for AC50: read-out: AC50
Method in brief: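 HeLa cells carrying a Luc-miR-21 firefly luciferase reporter were treated with compound for 48 h. miR-21 inhibition was read as increased luciferase signal. Concentration-response data were fitted with a four-parameter logistic model.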

[6] = 10 μM Compound + 5FU 0.5 μM, read-out: Cell Viability A172 Cells, Compound + 5FU (0.5 μM)
[7] = 10 μM Compound + Curcumin 10 μM, read-out: Cell Viability A172 Cells, Compound + Curcumin (10 μM)
[8] = 10 μM Compound alone, read-out: Cell Viability A172 Cells, Compound
[9] = Homo sapiens, HeLa, 48 h, HeLa Luc-miR-21 reporter, 48-hour incubation
[10] = Homo sapiens, Table 12 singletons
[11] = HeLa Luc-miR-21 reporter, 48-hour incubation

## C[C@]12CC[C@@H]3c4ccc(O)cc4CC[C@H]3[C@@H]1CCC2=O [estrone, reference compound]
[1]
  Cell Viability HEK293T Cells: 85%

## Cn1c2c(c3ccccc3c1=O)C(=O)c1cc3c(cc1-2)OCO3 [Compound 4]
Mature miR-93
  mature miR-93 level, % of DMSO control: 116%
[2]; [6]
  viability at 10 µM: 62%
[2]; [7]
  viability at 10 µM: 54%
[2]; [8]
  viability at 10 µM: 66%
Mature miR-21
  miR-21 RT PCR* (% Decrease as compared to DMSO control): 12%
Mature miR-30
  mature miR-30 level (% of DMSO control): 136%
[1]
  Cell Viability HEK293T Cells: 98%

## COc1ccc2c(c1[N+](=O)[O-])CCC1C2CC[C@]2(C)C(=O)CCC12 (some centres unmarked) [Compound 6]
Mature miR-93
  mature miR-93 level, % of DMSO control: 83%
[2]; [6]
  viability at 10 µM: 47%
[2]; [7]
  viability at 10 µM: 39%
[2]; [8]
  viability at 10 µM: 71%
Mature miR-21
  miR-21 RT PCR* (% Decrease as compared to DMSO control): 34%
Mature miR-30
  mature miR-30 level (% of DMSO control): 73%
[1]
  Cell Viability HEK293T Cells: 97%

## COc1cc(/C=C/C(=O)CC(=O)/C=C/c2ccc(O)c(OC)c2)ccc1O [Curcumin, curcumin, reference compound]
[3]
  primary miR-21 expression: increased
Mature miR-21
  mature miR-21 expression: increased

## C#CCNC(=O)c1ccc(NNc2ccccc2)cc1 [Compound 3]
Mature miR-93
  mature miR-93 level, % of DMSO control: 56%
[2]; [6]
  viability at 10 µM: 52%
[2]; [7]
  viability at 10 µM: 56%
[2]; [8]
  viability at 10 µM: 75%
Mature miR-21
  miR-21 RT PCR* (% Decrease as compared to DMSO control): 39%
Mature miR-30
  mature miR-30 level (% of DMSO control): 85%
[1]
  Cell Viability HEK293T Cells: 95%

## Nc1ccc(/N=N/c2ccc([N+](=O)[O-])cc2)cc1 [Compound 1]
miR-21 [4]
  increase of the luciferase signal: 251%

## COc1ccc2c(c1N)CCC1C2CC[C@]2(C)C(=O)CCC12 (some centres unmarked) [Compound 7]
[2]; [6]
  viability at 10 µM: 54%
[2]; [7]
  viability at 10 µM: 43%
[2]; [8]
  viability at 10 µM: 87%
[1]
  Cell Viability HEK293T Cells: 86%

## O=C1c2cc3c(cc2-c2[nH]c(=O)c4ccccc4c21)OCO3 [Compound 5]
[2]; [6]
  viability at 10 µM: 45%
[2]; [7]
  viability at 10 µM: 40%
[2]; [8]
  viability at 10 µM: 70%
[1]
  Cell Viability HEK293T Cells: 79%

## O=c1[nH]cc(F)c(=O)[nH]1 [Compound 5-FU, 5-fluorouracil, reference compound]
[3]
  primary miR-21 expression: increased
Mature miR-21
  mature miR-21 expression: increased

## C#Cc1cccc(NC(=O)CSc2nnc(-c3ccc(C(F)(F)F)cn3)o2)c1 [Compound 130]
miR-21 [5]; [9]
  AC50: 4.14 µM

## COCC1CCN(C(=O)c2oc3c(F)cccc3c2C)C1 (centres unmarked) [Compound 76]
miR-21 [5]; [9]
  AC50: 13.1 µM

## O=C(Cc1cccs1)N/N=C/C=C/c1ccccc1[N+](=O)[O-] [Compound 204]
miR-21 [5]; [9]
  AC50: 6.56 µM

## CCOc1ccccc1-n1nnc(-c2nc(-c3ccccc3)no2)c1N [Compound 23]
miR-21 [5]; [9]
  AC50: 3.69 µM

## Cc1ccccc1OCCn1cnc2c(N)ncnc21 [Compound 239]
miR-21 [5]; [9]
  AC50: 9.27 µM

## CC1(C)Cc2nc3oc4c(S)ncnc4c3cc2CO1 [Compound 295]
miR-21 [5]; [10]
  AC50: 13.1 µM

## C/C(CC(=O)Nc1cc(C)cc(C)c1)=N\NC(=O)c1ccccn1 [Compound 195]
miR-21 [5]; [9]
  AC50: 4.65 µM

## NC(=O)COC(=O)c1ccc2noc(-c3ccccc3)c2c1 [Compound 274]
miR-21 [5]; [10]
  AC50: 6.56 µM

## CSc1nsc(SCC(=O)Nc2ccccc2F)n1 [Compound 158]
miR-21 [5]; [9]
  AC50: 14.7 µM

## COc1ccc(NC(=O)C/C(C)=N/NC(=O)c2ccccn2)c(OC)c1 [Compound 187]
miR-21 [5]; [9]
  AC50: 1.85 µM

## O=C(CSc1nnc(-c2ccccn2)o1)Nc1ccccc1C(F)(F)F [Compound 142]
miR-21 [5]; [9]
  AC50: 9.27 µM

## c1ccc(CSc2nnc3ccc(-c4cccs4)nn23)nc1 [Compound 44]
miR-21 [5]; [9]
  AC50: 7.36 µM

## Cc1cccc(-n2nnc(-c3nc(-c4ccccc4)no3)c2N)c1C [Compound 20]
miR-21 [5]; [9]
  AC50: 1.85 µM

## Cc1ccc(-c2cc(C(=O)NCCc3ccccc3)c3c(-c4ccc(C)cc4)[nH]nc3c2)cc1 [Compound 110]
miR-21 [5]; [9]
  AC50: 9.26 µM

## O=S(=O)(c1ccc(F)cc1)n1ccc(-c2cnc(-c3ccccc3)s2)n1 [Compound 260]
miR-21 [5]; [10]
  AC50: 2.93 µM

## C/C(=N\N1C(=O)c2ccccc2NC1c1ccccc1)c1ccccc1O (centres unmarked) [Compound 192]
miR-21 [5]; [9]
  AC50: 2.61 µM

## O=C(CN1c2ccc(Br)cc2-c2ccccc2S1(=O)=O)N1CCCCC1 [Compound 280]
miR-21 [5]; [10]
  AC50: 7.36 µM

## COC(=O)C1C(=O)C=C(Nc2ccc(F)cc2F)CC1c1ccccc1 (centres unmarked) [Compound 340]
miR-21 [5]; [10]
  AC50: 18.5 µM

## CC(=NNC(=O)c1ccoc1C)c1cccc2ccccc12 [Compound 209, CC(═NNC(═O)C1═C(C)/O/C═C\1)C2═C/C═C\C3═C\C═C/C═C\2\3]
miR-21 [5]; [11]
  Efficacy: −65.67
  AC50: 7.36 µM
miR-21 [5]; HeLa Luc-miR-21 reporter, 48-hour incubation, four parameter logistic fit
  Curve Class: −2.2

## COc1cc2c(cc1N)C1CC[C@]3(C)C(=O)CCC3C1CC2 (some centres unmarked) [Compound 8]
[2]; [6]
  viability at 10 µM: 78%
[2]; [7]
  viability at 10 µM: 57%
[2]; [8]
  viability at 10 µM: 100%
[1]
  Cell Viability HEK293T Cells: 89%

## Cc1cc(CC(C)C)n(-c2nc3ccccc3c(=O)n2OCC(N)=O)n1 [Compound 180]
miR-21 [5]; [9]
  AC50: 14.7 µM

## O=C(N/N=C/c1cccc([N+](=O)[O-])c1)c1nc(O)c2ccccc2n1 [Compound 220]
miR-21 [5]; [9]
  AC50: 11.7 µM

## C/C(=N\NC(=O)c1ccccc1)c1ccc(NC(=O)C(F)(F)F)cc1 [Compound 197]
miR-21 [5]; [9]
  AC50: 4.65 µM

## CN(C)c1ccc(CNc2nc(-c3ccco3)nn2S(C)(=O)=O)cc1 [Compound 33]
miR-21 [5]; [9]
  AC50: 7.36 µM

## CCCNC(=O)OCc1cccnc1Sc1ccc(C)cc1 [Compound 319]
miR-21 [5]; [10]
  AC50: 16.5 µM

## CC1C2CC(C/C2=N\NC(=O)c2cccs2)C1(C)C (centres unmarked) [Compound 201]
miR-21 [5]; [9]
  AC50: 5.21 µM

## Cc1ccc(-c2nc3ccccc3o2)cc1NC(=S)NC(=O)c1cc2ccccc2o1 [Compound 258]
miR-21 [5]; [10]
  AC50: 2.93 µM

## COCCC/N=C(\S)N/N=C/c1ccc(N(C)C)cc1Cl [Compound 270]
miR-21 [5]; [10]
  AC50: 5.85 µM

## O=C(Cc1cccs1)N/N=C/C(Cl)=C/c1ccccc1 [Compound 193]
miR-21 [5]; [9]
  AC50: 2.93 µM

## COC(=O)/C(=C/c1cccc([N+](=O)[O-])c1)NC(=O)c1ccc(OC)cc1 [Compound 119]
miR-21 [5]; [9]
  AC50: 10.4 µM

## Nc1c(-c2nc(-c3cccs3)no2)nnn1-c1cccc(Cl)c1 [Compound 25]
miR-21 [5]; [9]
  AC50: 4.14 µM

## COCC(=O)Nc1ccc(C(=O)Nc2ccccc2Cl)cc1 [Compound 178]
miR-21 [5]; [9]
  AC50: 11.7 µM

## CC(C)(C)c1ccc(NC(=O)CSc2nnc(-c3[nH]nc4ccccc34)o2)cc1 [Compound 138]
miR-21 [5]; [9]
  AC50: 6.56 µM

## COC(=O)c1ccc(CN2C(=O)NC3(CCCCC3)C2=O)cc1 [Compound 320]
miR-21 [5]; [10]
  AC50: 16.5 µM

## Cc1cc(C)n2nc(SCCOc3ccccc3)nc2n1 [Compound 45]
miR-21 [5]; [9]
  AC50: 7.36 µM

## COc1ccc(C2CC(C)(c3ccc(OC)cc3)Nc3ccccc3N2)cc1 (centres unmarked) [Compound 278]
miR-21 [5]; [10]
  AC50: 7.36 µM

## COC(=O)c1ccc(Cn2nnc3sc4c(c3c2=O)CCCC4)cc1 [Compound 273]
miR-21 [5]; [10]
  AC50: 6.56 µM

## Cc1ccccc1Nc1nc(N)nc(CN(C)c2ccccc2)n1 [Compound 71]
miR-21 [5]; [9]
  AC50: 18.5 µM

## CCOC(=O)N1CCN(C(=O)CSCc2ccccc2Cl)CC1 [Compound 329]
miR-21 [5]; [10]
  AC50: 16.5 µM

## Cc1ccc(Nc2ncnc(N)n2)cc1C [Compound 61]
miR-21 [5]; [9]
  AC50: 13.1 µM
